Source: US12157755B2, “CD73 inhibitor, preparation method therefor and application thereof” (Abbisko Therapeutics Co., Ltd., priority 2019, dated 2024)

How the values were obtained:
CD73 = target: T1, CD73 (Homo sapiens, UniProt P21589); assay: In vitro enzymatic activity against CD73 (malachite green test using soluble CD73); format: biochemical; details: soluble CD73 36 ng/mL, 50 μM AMP, 30 minutes at 25° C.
T1 construct: purchased R&D systems 5795-EN-010
T1 sequence (P21589 27-547 limits assumed): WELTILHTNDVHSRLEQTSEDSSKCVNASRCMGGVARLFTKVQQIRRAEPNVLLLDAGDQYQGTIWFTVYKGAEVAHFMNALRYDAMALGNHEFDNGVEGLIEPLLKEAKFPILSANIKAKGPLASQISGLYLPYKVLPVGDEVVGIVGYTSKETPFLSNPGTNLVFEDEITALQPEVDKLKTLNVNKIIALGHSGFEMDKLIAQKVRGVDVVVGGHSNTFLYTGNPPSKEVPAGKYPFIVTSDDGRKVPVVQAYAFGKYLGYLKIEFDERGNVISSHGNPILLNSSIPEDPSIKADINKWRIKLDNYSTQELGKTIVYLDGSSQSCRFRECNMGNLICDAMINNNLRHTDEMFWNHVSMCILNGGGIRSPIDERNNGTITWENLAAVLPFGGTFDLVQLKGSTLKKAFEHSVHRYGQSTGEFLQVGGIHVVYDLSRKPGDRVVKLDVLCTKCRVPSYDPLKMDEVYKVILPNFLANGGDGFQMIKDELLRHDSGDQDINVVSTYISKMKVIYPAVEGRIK
Method: The malachite green test using soluble CD73, which is synthesized in vitro was used in the present invention to determine the characteristics of inhibitory activity of the compounds against CD73. The specific experimental procedures were as following:
1. The enzyme reaction in this experiment was carried out in 384-well plates, and CD73 (R&D systems #5795-EN-010) at a concentration of 36 ng/mL, the compounds at different concentrations and 50 μM AMP were incubated for 30 minutes at 25° C. in a 40 uL reaction system (consisting of 25 mM Tris pH 7.5, 5 mM MgCl2, and 0.005% Tween-20);
2. Then, 10 μL of malachite green solution (Sigma) was added to each well to terminate the reaction;
3. The concentration of resulting inorganic phosphate was determined according to the instructions of the reagent manufacturer;
4. The enzymatic activity of CD73 was calculated based on the concentration of the product, and then IC50 values were determined by non-linear regression analysis of the inhibition percentage of the compounds of the present invention at different concentrations.

[1] = target: T2, CD73 enzymatic activity expressed on the cell surface of MDA-MB-231 cells (Homo sapiens, UniProt P21589); assay: Inhibition of CD73 enzymatic activity on the cell surface (Cell Titer Glo (CTG) experiment), MDA-MB-231 cells; format: cell-based; details: MDA-MB-231 cells endogenously expressing CD73, AMP, 37° C. for 2 hours, CTG readout; read-out: Cellular activity IC50
T2 construct: Human breast cancer cells MDA-MB-231 that endogenously express CD73 were used; host or cells: MDA-MB-231
T2 sequence (P21589 27-549): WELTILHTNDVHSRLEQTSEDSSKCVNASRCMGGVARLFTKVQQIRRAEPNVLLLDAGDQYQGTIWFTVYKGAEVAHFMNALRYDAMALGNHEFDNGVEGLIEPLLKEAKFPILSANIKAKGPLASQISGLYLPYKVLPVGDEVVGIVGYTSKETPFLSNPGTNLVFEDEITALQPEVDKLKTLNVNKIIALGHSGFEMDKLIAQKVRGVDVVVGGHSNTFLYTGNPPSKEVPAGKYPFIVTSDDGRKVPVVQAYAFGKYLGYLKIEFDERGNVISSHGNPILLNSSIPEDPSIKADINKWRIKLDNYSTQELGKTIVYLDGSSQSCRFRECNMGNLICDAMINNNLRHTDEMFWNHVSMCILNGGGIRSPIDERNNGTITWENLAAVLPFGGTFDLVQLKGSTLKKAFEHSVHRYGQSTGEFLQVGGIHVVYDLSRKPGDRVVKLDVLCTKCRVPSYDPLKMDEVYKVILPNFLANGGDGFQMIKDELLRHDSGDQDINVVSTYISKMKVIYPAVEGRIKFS
Method: Human breast cancer cells MDA-MB-231 that endogenously express CD73 were used in the present invention to evaluate the inhibition of the compound against the CD73 enzymatic activity expressed on the cell surface. The cells used were from the Cell Bank of the Chinese Academy of Sciences. The specific experimental procedures were as follows:
1. Before the test, MDA-MB231 cells were seeded to a 96-well plate at 20000 cells/well;
2. In RPMI1640, 10% fetal bovine serum (Gibco, 10099-141), placed in a 5% CO2 incubator at 37° C. overnight (the cells were washed three times by using a serum-free RPMI medium right before the test):
3. 50 μl of serum-free media containing the compounds at different concentrations were added to the cells and incubated for 15 minutes;
4. 25 μL of 1.2 mM AMP was added for incubation at 37° C. for 2 hours, 25 μL of supernatant was then collected from the cells and mix with 25 μL of 100 μM ATP, and then the concentration of AMP in the samples was determined by CTG (Promega, #G7573);
5. Then, a reduction ratio of the substrate AMP level in the cell culture supernatant collected after the reaction was quantitatively determined to evaluate the inhibitory effects of the examples of the present invention and the positive compounds against the CD73 enzymatic activity on the cell surface;
6. Finally, the concentration of the compound leading to half maximal inhibition of enzymatic activity (IC50) was determined using a four-parameter non-linear logistic model curve fit in Graphpad Prism.

O=P(O)(O)CP(=O)(O)OC[C@H]1C[C@@H](c2ccc3c(N[C@@H]4CCc5cc(F)c(F)cc54)nc(Cl)nn23)[C@H](O)[C@@H]1O [Example 32, (((((1R,2R,3S,4S)-4-(2-chloro-4-(((R)-5,6-difluoro-2,3-dihydro-1H-inden-1-yl)amino)pyrrolo[2,1-f][1,2,4]triazin-7-yl)-2,3-dihydroxycyclopentyl)methoxy)(hydroxy)phosphoryl)methyl)phosphonic acid]
IC50 (CD73): 4.08 nM | IC50 [1]: 0.27 nM

O=P(O)(O)CP(=O)(O)OC[C@H]1O[C@@H](n2ncc3c(N[C@@H]4CCc5ccc(F)cc54)cc(Cl)nc32)[C@H](O)[C@@H]1O [Example 17, (((((2R,3S,4R,5R)-5-(6-chloro-4-(((R)-6-fluoro-2,3-dihydro-1H-inden-1-yl)amino)-1H-pyrazolo[3,4-b]pyridin-1-yl)-3,4-dihydroxytetrahydrofuran-2-yl)methoxy)(hydroxy)phosphoryl)methyl)phosphonic acid]
IC50 (CD73): 0.32 nM | IC50 [1]: 0.14 nM

O=P(O)(O)CP(=O)(O)OC[C@H]1C[C@@H](c2ccc3c(N[C@H]4CCc5ccccc54)nc(Cl)nn23)[C@H](O)[C@@H]1O [Example 26, (((((1R,2R,3S,4S)-4-(2-chloro-4-(((S)-2,3-dihydro-1H-inden-1-yl)amino)pyrrolo[2,1-f][1,2,4]triazin-7-yl)-2,3-dihydroxy-cyclopentyl)methoxy)(hydroxy)phosphoryl)methyl)phosphonic acid]
IC50 [1]: 3.18 nM

O=P(O)(O)CP(=O)(O)OC[C@H]1O[C@@H](n2ncc3c(N[C@H]4CCc5ccccc54)cc(Cl)nc32)[C@H](O)[C@@H]1O [Example 12, (((((2R,3S,4R,5R)-5-(6-chloro-4-(((S)-2,3-dihydro-1H-inden-1-yl)amino)-1H-pyrazolo[3,4-b]pyridin-1-yl)-3,4-dihydroxytetrahydrofuran-2-yl)methoxy)(hydroxy)phosphoryl)methyl)phosphonic acid]
IC50 (CD73): 0.26 nM | IC50 [1]: 0.26 nM

C[C@@H](Nc1cc(Cl)nc2c1cnn2[C@@H]1O[C@H](COP(=O)(O)CP(=O)(O)O)[C@@H](O)[C@H]1O)c1ccc(S(F)(F)(F)(F)F)cc1F [Example 11, (((((2R,3S,4R,5R)-5-(6-chloro-4-(((R)-1-(2-fluoro-4-(pentafluoro-λ^6-sulfanyl)phenyl)ethyl)amino)-1H-pyrazolo[3,4-b]pyridin-1-yl)-3,4-dihydroxytetrahydrofuran-2-yl)methoxy)(hydroxy)phosphoryl)methyl) phosphonic acid]
IC50 (CD73): 31.6 nM | IC50 [1]: 0.99 nM

O=P(O)(O)CP(=O)(O)OC[C@H]1C[C@@H](c2ccc3c(N[C@H]4CCc5cc(F)ccc54)nc(Cl)nn23)[C@H](O)[C@@H]1O [Example 27, (((((1R,2R,3S,4S)-4-(2-chloro-4-(((S)-5-fluoro-2,3-dihydro-1H-inden-1-yl)amino)pyrrolo[2,1-f][1,2,4]triazin-7-yl)-2,3-dihydroxycyclopentyl)methoxy)(hydroxy)phosphoryl)methyl)phosphonic acid]
IC50 (CD73): 82.6 nM | IC50 [1]: 2.54 nM

O=P(O)(O)CP(=O)(O)OC[C@H]1C[C@@H](c2ccc3c(N[C@@H]4CCc5ccc(F)cc54)nc(Cl)nn23)[C@H](O)[C@@H]1O [Example 30, (((((1R,2R,3S,4S)-4-(2-chloro-4-(((R)-6-fluoro-2,3-dihydro-1H-inden-1-yl)amino)pyrrolo[2,1-f][1,2,4]triazin-7-yl)-2,3-dihydroxycyclopentyl)methoxy)(hydroxy)phosphoryl)methyl)phosphonic acid]
IC50 (CD73): 3.4 nM | IC50 [1]: 0.19 nM

C[C@@H](Nc1nc(Cl)nc2c1cnn2[C@@H]1O[C@H](COP(=O)(O)CP(=O)(O)O)[C@@H](O)[C@H]1O)c1ccc(S(F)(F)(F)(F)F)cc1F [Example 3, (((((2R,3S,4R,5R)-5-(6-chloro-4-(((R)-1-(2-fluoro-4-(pentafluoro-λ^6-sulfanyl)phenyl)ethyl)amino)-1H-pyrazolo[3,4-d]pyrimidin-1-yl)-3,4-dihydroxytetrahydrofuran-2-yl)methoxy)(hydroxy)phosphoryl)methyl)phosphonic acid]
IC50 (CD73): 1.6 nM | IC50 [1]: 0.722 nM

C[C@@H](Nc1cc(Cl)nc2c1cnn2[C@@H]1O[C@H](COP(=O)(O)CP(=O)(O)O)[C@@H](O)[C@H]1O)c1ccc(S(F)(F)(F)(F)F)cc1 [Example 7, (((((2R,3S,4R,5R)-5-(6-chloro-4-(((R)-1-(4-(pentafluoro-λ^6-sulfanyl)phenyl)ethyl)amino)-1H-pyrazolo[3,4-b]pyridin-1-yl)-3,4-dihydroxytetrahydrofuran-2-yl)methoxy)(hydroxy)phosphoryl)methyl) phosphonic acid]
IC50 (CD73): 15.1 nM | IC50 [1]: 1.61 nM

O=P(O)(O)CP(=O)(O)OC[C@H]1O[C@@H](n2ncc3c(N[C@@H]4CCc5cc(F)ccc54)cc(Cl)nc32)[C@H](O)[C@@H]1O [Example 16, (((((2R,3S,4R,5R)-5-(6-chloro-4-(((R)-5-fluoro-2,3-dihydro-1H-inden-1-yl)amino)-1H-pyrazolo[3,4-b]pyridin-1-yl)-3,4-dihydroxytetrahydrofuran-2-yl)methoxy)(hydroxy)phosphoryl)methyl)phosphonic acid]
IC50 (CD73): 0.34 nM | IC50 [1]: 0.176 nM

O=P(O)(O)CP(=O)(O)OC[C@H]1C[C@@H](c2ccc3c(N[C@@H]4CCc5cc(F)cc(F)c54)nc(Cl)nn23)[C@H](O)[C@@H]1O [Example 34, (((((1R,2R,3S,4S)-4-(2-chloro-4-(((R)-5,7-difluoro-2,3-dihydro-1H-inden-1-yl)amino)pyrrolo[2,1-f][1,2,4]triazin-7-yl)-2,3-dihydroxycyclopentyl)methoxy)(hydroxy)phosphoryl)methyl)phosphonic acid]
IC50 (CD73): 1.01 nM | IC50 [1]: 0.22 nM

C[C@H](Nc1nc(Cl)nc2c1cnn2[C@@H]1O[C@H](COP(=O)(O)CP(=O)(O)O)[C@@H](O)[C@H]1O)c1ccc(S(F)(F)(F)(F)F)cc1F [Example 4, (((((2R,3S,4R,5R)-5-(6-chloro-4-(((S)-1-(2-fluoro-4-(pentafluoro-λ^6-sulfanyl)phenyl)ethyl)amino)-1H-pyrazolo[3,4-d]pyrimidin-1-yl)-3,4-dihydroxytetrahydrofuran-2-yl)methoxy)(hydroxy)phosphoryl)methyl)phosphonic acid]
IC50 (CD73): 23.4 nM | IC50 [1]: 0.9 nM

O=P(O)(O)CP(=O)(O)OC[C@H]1C[C@@H](c2ccc3c(N[C@@H]4CCc5ccccc54)nc(Cl)nn23)[C@H](O)[C@@H]1O [Example 25, (((((1R,2R,3S,4S)-4-(2-chloro-4-(((R)-2,3-dihydro-1H-inden-1-yl)amino)pyrrolo[2,1-f][1,2,4]triazin-7-yl)-2,3-dihydroxycyclopentyl)methoxy)(hydroxy)phosphoryl)methyl)phosphonic acid]
IC50 (CD73): 5.5 nM | IC50 [1]: 0.55 nM
